Activity calls are given as the source filed them.
Experiments:
[1] = biological target: 5-hydroxytryptamine receptor 1A (Homo sapiens, UniProt P08908); format: functional
[2] = biological target: T1, DNA repair protein RAD52 homolog (Homo sapiens, UniProt P43351); format: functional, biochemical
T1 sequence (P43351 whole entry): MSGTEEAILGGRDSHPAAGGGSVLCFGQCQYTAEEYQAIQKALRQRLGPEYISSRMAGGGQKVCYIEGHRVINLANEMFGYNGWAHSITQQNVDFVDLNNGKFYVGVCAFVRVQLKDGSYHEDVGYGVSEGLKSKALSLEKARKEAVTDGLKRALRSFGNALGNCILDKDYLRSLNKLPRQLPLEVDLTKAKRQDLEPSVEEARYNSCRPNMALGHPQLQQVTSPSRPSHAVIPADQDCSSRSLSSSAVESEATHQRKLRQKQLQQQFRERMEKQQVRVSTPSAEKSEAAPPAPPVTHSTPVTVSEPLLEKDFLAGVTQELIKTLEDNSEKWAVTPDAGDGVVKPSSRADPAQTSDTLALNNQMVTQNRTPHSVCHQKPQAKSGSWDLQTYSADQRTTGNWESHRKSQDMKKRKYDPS

[3] = Luminescence Cell-Based Dose Response HTS to Identify Activators of Luciferase Translation or Activity in H4 […] Cells. [Related pubchem assays: 1829 (Project Summary), 1814 (Primary HTS)]; format: functional
H4 = assay: Luminescence Cell-Based Dose Response HTS to Identify Activators of 5'UTR Stem-Loop Driven Prion Protein mRNA Translation in H4 Neuroglioblastoma Cells. [Related pubchem assays: 1829 (Project Summary), 1814 (Primary HTS)]; format: functional; conditions: Homo sapiens
[4] = biological target: Aryl hydrocarbon receptor (Homo sapiens, UniProt P35869); assay: Luminescence-based cell-based high throughput dose response assay for activators of the Aryl Hydrocarbon Receptor (AHR). [Related pubchem assays: 2796 (Primary screen (AHR activators in singlicate)), 2845 (Confirmation screen (AHR activators in triplicate)), 434939 (Counterscreen (PXR activators in triplicate)), 2804 (Summary (AHR activators))]; format: ADME
[5] = inhibitors of intracellular T. cruzi replication, confirmation, NIH3T3 host cells, beta-gal luminescence (AID 2044); format: functional, cell-based;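 further: intracellular parasites grown in NIH/3T3 mouse fibroblasts as host cells; luminescent beta-galactosidase reporter signal from transgenic T. cruzi replicating inside host cells; inhibitors lower the luminescence signal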
[6] = cytotoxicity toward NIH3T3 fibroblasts, dose response, counter-screen, cell-based, ATP luminescence, mouse fibroblasts (AID 2010); format: functional;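 further: cells exposed to compound for about 90 hours before reading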
[7] = biological target: T2, Rac GTPase-activating protein 1 (Homo sapiens, UniProt Q9H0H5); assay: MgcRacGAP GTPase-activating activity inhibitors, confirmation, biochemical, ADP Hunter fluorescence, primary and confirmatory (AID 624330); format: functional
T2 sequence (Q9H0H5 whole entry): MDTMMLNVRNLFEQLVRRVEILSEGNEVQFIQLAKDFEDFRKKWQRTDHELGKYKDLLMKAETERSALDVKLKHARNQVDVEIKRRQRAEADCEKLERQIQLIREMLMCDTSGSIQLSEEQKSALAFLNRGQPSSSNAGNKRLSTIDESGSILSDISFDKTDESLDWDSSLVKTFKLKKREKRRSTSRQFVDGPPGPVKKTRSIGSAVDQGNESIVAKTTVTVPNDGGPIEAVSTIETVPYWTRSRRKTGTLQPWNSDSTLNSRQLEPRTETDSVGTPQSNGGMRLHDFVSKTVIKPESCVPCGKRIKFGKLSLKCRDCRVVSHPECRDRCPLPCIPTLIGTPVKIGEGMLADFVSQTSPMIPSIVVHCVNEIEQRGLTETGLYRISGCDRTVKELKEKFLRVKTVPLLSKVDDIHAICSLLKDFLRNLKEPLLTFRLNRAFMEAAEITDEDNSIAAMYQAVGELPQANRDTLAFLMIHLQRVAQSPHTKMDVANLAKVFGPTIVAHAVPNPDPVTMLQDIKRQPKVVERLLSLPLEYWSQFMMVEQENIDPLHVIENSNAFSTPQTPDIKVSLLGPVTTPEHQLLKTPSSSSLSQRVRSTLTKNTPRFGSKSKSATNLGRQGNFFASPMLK

[8] = Luminescence-based dose response cell-based high throughput screening assay for cytotoxic compounds using the IEC-6 intestinal epithelial cell line. [Related pubchem assays: 1858 (Summary AID.), 1825 (Counterscreen.), 1907 (Confirmation screen.)]; format: functional
[9] = HEp-2 cell cytotoxicity, dose response, cytotoxicity control for RSV inhibitor project, HTS (AID 2410); format: functional; conditions: human respiratory syncytial virus
[10] = biological target: Protein-tyrosine kinase 2-beta (Homo sapiens, UniProt Q14289);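 further: potency of inhibitors of PYK2 kinase phosphorylation of poly-GT substrate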
Chain of Protein-tyrosine kinase 2-beta (Q14289 whole entry): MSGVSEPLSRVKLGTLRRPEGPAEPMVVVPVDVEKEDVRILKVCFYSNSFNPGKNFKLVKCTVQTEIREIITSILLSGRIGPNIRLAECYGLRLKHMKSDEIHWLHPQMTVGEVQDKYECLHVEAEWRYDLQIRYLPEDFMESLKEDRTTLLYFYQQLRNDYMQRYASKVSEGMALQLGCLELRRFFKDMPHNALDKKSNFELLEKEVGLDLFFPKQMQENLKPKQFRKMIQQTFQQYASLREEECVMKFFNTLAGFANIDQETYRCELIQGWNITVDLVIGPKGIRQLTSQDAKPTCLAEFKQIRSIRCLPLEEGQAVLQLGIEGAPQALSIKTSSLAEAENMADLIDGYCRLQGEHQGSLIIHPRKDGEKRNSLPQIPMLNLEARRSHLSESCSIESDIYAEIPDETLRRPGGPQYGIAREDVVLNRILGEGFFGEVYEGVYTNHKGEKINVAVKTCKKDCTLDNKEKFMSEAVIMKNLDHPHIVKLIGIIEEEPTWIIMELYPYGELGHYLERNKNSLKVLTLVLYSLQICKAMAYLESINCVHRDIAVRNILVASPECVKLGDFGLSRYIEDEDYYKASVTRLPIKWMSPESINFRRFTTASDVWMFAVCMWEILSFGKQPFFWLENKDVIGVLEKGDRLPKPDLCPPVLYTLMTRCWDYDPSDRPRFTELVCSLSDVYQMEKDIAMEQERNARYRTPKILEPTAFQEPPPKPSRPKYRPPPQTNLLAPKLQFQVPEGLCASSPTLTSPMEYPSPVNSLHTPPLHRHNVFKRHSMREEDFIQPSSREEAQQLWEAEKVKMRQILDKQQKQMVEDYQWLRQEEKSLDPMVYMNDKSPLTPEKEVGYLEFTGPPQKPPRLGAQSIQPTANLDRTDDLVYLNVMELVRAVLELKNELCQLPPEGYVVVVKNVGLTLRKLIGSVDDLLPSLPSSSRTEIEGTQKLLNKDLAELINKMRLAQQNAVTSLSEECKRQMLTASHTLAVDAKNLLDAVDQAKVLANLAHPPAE

Chain of 5-hydroxytryptamine receptor 1A (P08908 whole entry): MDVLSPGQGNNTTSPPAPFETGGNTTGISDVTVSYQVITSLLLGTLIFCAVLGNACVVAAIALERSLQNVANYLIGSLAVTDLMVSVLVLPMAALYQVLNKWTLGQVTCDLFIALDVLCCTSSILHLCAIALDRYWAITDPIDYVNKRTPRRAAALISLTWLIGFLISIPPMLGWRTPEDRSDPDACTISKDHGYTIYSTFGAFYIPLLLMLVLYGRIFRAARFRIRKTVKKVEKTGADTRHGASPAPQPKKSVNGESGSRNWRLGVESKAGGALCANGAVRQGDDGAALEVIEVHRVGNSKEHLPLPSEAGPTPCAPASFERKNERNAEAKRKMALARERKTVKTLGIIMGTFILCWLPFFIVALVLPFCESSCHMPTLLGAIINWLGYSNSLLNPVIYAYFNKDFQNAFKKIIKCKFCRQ
Chain of Aryl hydrocarbon receptor (P35869 whole entry): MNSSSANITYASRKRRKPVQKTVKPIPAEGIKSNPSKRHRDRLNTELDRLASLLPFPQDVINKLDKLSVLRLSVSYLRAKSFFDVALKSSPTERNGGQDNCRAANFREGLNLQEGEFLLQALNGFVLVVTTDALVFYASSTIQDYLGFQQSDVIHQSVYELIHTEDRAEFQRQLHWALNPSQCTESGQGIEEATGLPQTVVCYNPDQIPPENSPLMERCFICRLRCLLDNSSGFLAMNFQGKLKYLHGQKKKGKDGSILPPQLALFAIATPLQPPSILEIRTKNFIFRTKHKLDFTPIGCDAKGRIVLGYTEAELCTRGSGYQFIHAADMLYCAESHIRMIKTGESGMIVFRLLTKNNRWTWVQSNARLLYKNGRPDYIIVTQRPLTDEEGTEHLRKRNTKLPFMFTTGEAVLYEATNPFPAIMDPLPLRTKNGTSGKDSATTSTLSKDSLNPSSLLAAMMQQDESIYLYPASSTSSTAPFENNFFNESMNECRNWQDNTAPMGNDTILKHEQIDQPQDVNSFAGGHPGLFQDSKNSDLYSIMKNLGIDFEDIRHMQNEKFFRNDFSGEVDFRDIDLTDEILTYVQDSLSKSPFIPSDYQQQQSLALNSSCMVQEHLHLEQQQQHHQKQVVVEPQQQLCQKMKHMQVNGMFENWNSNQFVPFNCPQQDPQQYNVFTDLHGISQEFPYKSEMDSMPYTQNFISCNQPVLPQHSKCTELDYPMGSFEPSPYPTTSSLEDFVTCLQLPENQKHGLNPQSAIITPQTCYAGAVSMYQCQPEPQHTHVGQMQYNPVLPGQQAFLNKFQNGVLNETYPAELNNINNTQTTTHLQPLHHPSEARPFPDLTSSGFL

Cc1[nH]c2ccccc2c1C1=CCNCC1
EC50 [1]: > 50 µM (not active) | AC50 [2]: 4.56 µM (active)

Cc1ccc(/C=N/n2cc(-c3ccccc3)nc2S)s1
EC50 [3]: 10.4 µM (active) | EC50 (H4): 20 µM (active) | EC50 [4]: 1.44 µM (active)

O=C(N/N=C/c1ccc(O)cc1)Nc1cccc2nsnc12
EC50 [5]: 0.356 µM (active) | EC50 [6]: 10.8 µM (active) | IC50 [7]: 63.5 µM (active) | IC50 [8]: 2.51 µM (active) | CC50 [9]: > 50 µM (active)

NC(=O)c1sc2nc3c(c(-c4ccco4)c2c1N)CCC3
IC50 [10]: 10.2 µM (not active)

— ChEMBL document CHEMBL1201862, “PubChem BioAssay data set” (2004)
